Tests used:
[1] = Serum stability in mouse serum (radio-TLC); type: in vitro ADME; conditions: 37 °C, 2, 24 and 48 h
Description: (§1) The serum stabilities of ^64Cu-cudotadipep and ^64Cu-cunotadipep were evaluated in human and mouse sera for 48 h. Briefly, 10 µL ^64Cu-cudotadipep (3.7 MBq) or […] (3.7 MBq) was mixed with 90 µL human or mouse serum and then incubated at 37 °C for 48 h. At each time point (2, 24, and 48 h), a 10 µL sample was removed, mixed with 100 µL distilled water, filtered through a 0.22 µm membrane filter, and then analyzed using radio-thin layer chromatography (TLC eluent condition: 1 M NH4OAc:MeOH = 1:1). The radio-TLCs were performed using a radio-TLC imaging scanner (BioScan, Washington, DC, USA) for radiodetection.

PC3-flu (PSMA−) cells = test: Cell uptake in PC3-flu cells; type: cell-based, human; conditions: 1 × 10^6 cells, 3.7 MBq, 2 h, 37 °C
Description: (§2) PC3-PIP or PC3-flu cells (1 × 10^6) were mixed with 3.7 MBq (100 μCi) of ^64Cu-cudotadipep or ^64Cu-cunotadipep and incubated at 37 °C and 5% CO2 for 2 h. Following incubation, the cells were washed with PBS twice and collected via centrifugation (2000 rpm, 5 min). Radioactivity was measured using 2480 WIZARD2 gamma counter (Perkin Elmer, Waltham, MA, USA). Percent (%) uptake was calculated using the ratio between the radioactivity of the cells and treated radioactivity.

[2] = Biodistribution in normal BALB/c mice; type: in vivo, mouse; conditions: tail vein
Description: (§3) Approximately 0.93 MBq ^64Cu-cudotadipep or ^64Cu-cunotadipep was injected via the tail vein into normal BALB/c mice or PC3-PIP tumor-bearing nude mice (n = 5/group). Normal and tumor-bearing mice were euthanized at 2, 6, 24, and 48 h following injection. Tumor and normal tissues were excised and weighed, and their radioactivity was measured using a gamma counter (2480 WIZARD2 gamma counter, Perkin Elmer, Waltham, MA, USA). The radioactivity measured in each tissue was expressed as a percentage of the injected dose per gram of tissue (%ID/g).

[3] = Serum stability in human serum (radio-TLC); type: in vitro ADME; conditions: 37 °C, 2, 24 and 48 h
Description: as §1

PC3-PIP tumor xenograft = test: Biodistribution in PC3-PIP tumor-bearing nude mice; type: in vivo, mouse; conditions: tail vein
Description: All animal experiments followed the procedures approved by the Institutional Animal Care and Use Committee of Korea Institute of Radiological & Medical Sciences (approval No. KIRAMS2021-0044). Male BALB/c mice and athymic nude (Nu/Nu) BALB/c mice (weighing 20–25 g, 8 weeks old) were purchased from Nara Biotech (Seoul, Republic of Korea). PC3-PIP cells (1 × 10^7) were dispensed in 100 μL PBS, mixed with Matrigel, and subcutaneously implanted in the right thigh of male athymic nude (Nu/Nu) BALB/c mice. When the tumor reached 0.5–0.9 cm in diameter (2–3 weeks following implantation), biodistribution studies and PET imaging were performed.
as §3

PC3-PIP (PSMA+) cells = test: Cell uptake in PC3-PIP cells; type: cell-based, human; conditions: PC3-PIP cells, 1 × 10^6 cells, 3.7 MBq, 2 h, 37 °C
Description: as §2

[4] = Radiation-absorbed dose calculation (OLINDA/EXM) from normal mouse biodistribution; design: species or system human
Description: The biodistribution results of normal BALB/c mice were used to evaluate the human radiation-absorbed dose. The internal absorbed doses of ^64Cu-cudotadipep and ^64Cu-cunotadipep were evaluated using the residence time and total amount of radioactivity in the target organ of the mice. The internal absorbed dose of the mice was converted to the human dose based on the Medical Internal Radiation Dose schema, using OLINDA/EXM version 1.1 software.

O=C([O-])CN1CCN(CC(=O)[O-])CCN(CC(=O)N[C@@H](CCCCNC(=O)CCCc2ccc(I)cc2)C(=O)NCCOCCOCC(=O)N(CCCC[C@H](NC(=O)N[C@@H](CCC(=O)O)C(=O)O)C(=O)O)CC(=O)O)CC1.[64Cu+2] [^64Cu-cunotadipep]
serum stability [1]: > 98%
cellular uptake (PC3-flu (PSMA−) cells): 1.52 ± 0.03%
Biodistribution, Blood ([2]; 2 h): 9.51 ± 7.25 %ID/g
Biodistribution, Bone ([2]; 2 h): 1.07 ± 0.24 %ID/g
Biodistribution, Brain ([2]; 2 h): 0.26 ± 0.12 %ID/g
Biodistribution, Fat ([2]; 2 h): 1.20 ± 0.35 %ID/g
Biodistribution, Heart ([2]; 2 h): 3.17 ± 1.12 %ID/g
Biodistribution, Intestine ([2]; 2 h): 2.21 ± 0.35 %ID/g
Biodistribution, Kidney ([2]; 2 h): 53.28 ± 19.92 %ID/g
Biodistribution, Liver ([2]; 2 h): 4.38 ± 1.51 %ID/g
Biodistribution, Lung ([2]; 2 h): 5.48 ± 2.24 %ID/g
Biodistribution, Muscle ([2]; 2 h): 1.30 ± 0.42 %ID/g
Biodistribution, Spleen ([2]; 2 h): 5.07 ± 1.38 %ID/g
Biodistribution, Stomach ([2]; 2 h): 1.21 ± 0.49 %ID/g
Biodistribution, Blood ([2]; 6 h): 5.62 ± 0.95 %ID/g
Biodistribution, Bone ([2]; 6 h): 0.89 ± 0.22 %ID/g
Biodistribution, Brain ([2]; 6 h): 0.19 ± 0.02 %ID/g
Biodistribution, Fat ([2]; 6 h): 0.99 ± 0.27 %ID/g
Biodistribution, Heart ([2]; 6 h): 2.25 ± 0.33 %ID/g
Biodistribution, Intestine ([2]; 6 h): 1.69 ± 0.55 %ID/g
Biodistribution, Kidney ([2]; 6 h): 58.85 ± 6.00 %ID/g
Biodistribution, Liver ([2]; 6 h): 4.11 ± 0.53 %ID/g
Biodistribution, Lung ([2]; 6 h): 4.76 ± 0.51 %ID/g
Biodistribution, Muscle ([2]; 6 h): 1.05 ± 0.14 %ID/g
Biodistribution, Spleen ([2]; 6 h): 5.05 ± 1.56 %ID/g
Biodistribution, Stomach ([2]; 6 h): 0.92 ± 0.45 %ID/g
Biodistribution, Blood ([2]; 24 h): 1.39 ± 0.15 %ID/g
Biodistribution, Bone ([2]; 24 h): 0.60 ± 0.03 %ID/g
Biodistribution, Brain ([2]; 24 h): 0.13 ± 0.01 %ID/g
Biodistribution, Fat ([2]; 24 h): 0.63 ± 0.26 %ID/g
Biodistribution, Heart ([2]; 24 h): 1.22 ± 0.06 %ID/g
Biodistribution, Intestine ([2]; 24 h): 1.16 ± 0.24 %ID/g
Biodistribution, Kidney ([2]; 24 h): 37.40 ± 1.84 %ID/g
Biodistribution, Liver ([2]; 24 h): 5.32 ± 0.12 %ID/g
Biodistribution, Lung ([2]; 24 h): 2.53 ± 0.20 %ID/g
Biodistribution, Muscle ([2]; 24 h): 0.42 ± 0.05 %ID/g
Biodistribution, Spleen ([2]; 24 h): 2.56 ± 0.33 %ID/g
Biodistribution, Stomach ([2]; 24 h): 0.67 ± 0.22 %ID/g
Biodistribution, Blood ([2]; 48 h): 0.45 ± 0.15 %ID/g
Biodistribution, Bone ([2]; 48 h): 0.83 ± 0.10 %ID/g
Biodistribution, Brain ([2]; 48 h): 0.18 ± 0.01 %ID/g
Biodistribution, Fat ([2]; 48 h): 0.40 ± 0.10 %ID/g
Biodistribution, Heart ([2]; 48 h): 0.95 ± 0.07 %ID/g
Biodistribution, Intestine ([2]; 48 h): 0.56 ± 0.08 %ID/g
Biodistribution, Kidney ([2]; 48 h): 9.55 ± 2.33 %ID/g
Biodistribution, Liver ([2]; 48 h): 3.86 ± 0.31 %ID/g
Biodistribution, Lung ([2]; 48 h): 1.32 ± 0.13 %ID/g
Biodistribution, Muscle ([2]; 48 h): 0.45 ± 0.04 %ID/g
Biodistribution, Spleen ([2]; 48 h): 1.19 ± 0.11 %ID/g
Biodistribution, Stomach ([2]; 48 h): 0.44 ± 0.11 %ID/g
serum stability [3]: > 98%
Biodistribution, Blood (PC3-PIP tumor xenograft; 2 h): 9.81 ± 3.47 %ID/g
Biodistribution, Bone (PC3-PIP tumor xenograft; 2 h): 5.71 ± 1.47 %ID/g
Biodistribution, Fat (PC3-PIP tumor xenograft; 2 h): 5.72 ± 5.53 %ID/g
Biodistribution, Heart (PC3-PIP tumor xenograft; 2 h): 4.56 ± 1.25 %ID/g
Biodistribution, Intestine (PC3-PIP tumor xenograft; 2 h): 2.97 ± 1.15 %ID/g
Biodistribution, Kidney (PC3-PIP tumor xenograft; 2 h): 65.02 ± 22.42 %ID/g
Biodistribution, Liver (PC3-PIP tumor xenograft; 2 h): 8.33 ± 2.29 %ID/g
Biodistribution, Lung (PC3-PIP tumor xenograft; 2 h): 7.72 ± 2.30 %ID/g
Biodistribution, Muscle (PC3-PIP tumor xenograft; 2 h): 2.14 ± 0.59 %ID/g
Biodistribution, Spleen (PC3-PIP tumor xenograft; 2 h): 8.58 ± 3.99 %ID/g
Biodistribution, Stomach (PC3-PIP tumor xenograft; 2 h): 2.50 ± 1.05 %ID/g
Biodistribution, Tumor (PC3-PIP tumor xenograft; 2 h): 22.61 ± 14.10 %ID/g
Biodistribution, Blood (PC3-PIP tumor xenograft; 6 h): 4.01 ± 0.94 %ID/g
Biodistribution, Bone (PC3-PIP tumor xenograft; 6 h): 1.81 ± 1.50 %ID/g
Biodistribution, Fat (PC3-PIP tumor xenograft; 6 h): 4.14 ± 1.33 %ID/g
Biodistribution, Heart (PC3-PIP tumor xenograft; 6 h): 2.59 ± 0.38 %ID/g
Biodistribution, Intestine (PC3-PIP tumor xenograft; 6 h): 2.74 ± 0.80 %ID/g
Biodistribution, Kidney (PC3-PIP tumor xenograft; 6 h): 91.48 ± 12.98 %ID/g
Biodistribution, Liver (PC3-PIP tumor xenograft; 6 h): 6.96 ± 1.00 %ID/g
Biodistribution, Lung (PC3-PIP tumor xenograft; 6 h): 5.75 ± 2.72 %ID/g
Biodistribution, Muscle (PC3-PIP tumor xenograft; 6 h): 1.44 ± 0.56 %ID/g
Biodistribution, Spleen (PC3-PIP tumor xenograft; 6 h): 6.63 ± 0.12 %ID/g
Biodistribution, Stomach (PC3-PIP tumor xenograft; 6 h): 1.42 ± 0.53 %ID/g
Biodistribution, Tumor (PC3-PIP tumor xenograft; 6 h): 35.14 ± 9.68 %ID/g
Biodistribution, Blood (PC3-PIP tumor xenograft; 24 h): 1.23 ± 0.38 %ID/g
Biodistribution, Bone (PC3-PIP tumor xenograft; 24 h): 2.81 ± 1.71 %ID/g
Biodistribution, Fat (PC3-PIP tumor xenograft; 24 h): 0.74 ± 0.20 %ID/g
Biodistribution, Heart (PC3-PIP tumor xenograft; 24 h): 1.64 ± 0.12 %ID/g
Biodistribution, Intestine (PC3-PIP tumor xenograft; 24 h): 2.38 ± 0.42 %ID/g
Biodistribution, Kidney (PC3-PIP tumor xenograft; 24 h): 50.29 ± 7.06 %ID/g
Biodistribution, Liver (PC3-PIP tumor xenograft; 24 h): 6.99 ± 0.45 %ID/g
Biodistribution, Lung (PC3-PIP tumor xenograft; 24 h): 4.58 ± 1.08 %ID/g
Biodistribution, Muscle (PC3-PIP tumor xenograft; 24 h): 0.41 ± 0.06 %ID/g
Biodistribution, Spleen (PC3-PIP tumor xenograft; 24 h): 2.79 ± 0.87 %ID/g
Biodistribution, Stomach (PC3-PIP tumor xenograft; 24 h): 1.27 ± 0.08 %ID/g
Biodistribution, Tumor (PC3-PIP tumor xenograft; 24 h): 37.13 ± 3.65 %ID/g
Biodistribution, Blood (PC3-PIP tumor xenograft; 48 h): 1.08 ± 0.27 %ID/g
Biodistribution, Bone (PC3-PIP tumor xenograft; 48 h): 3.42 ± 0.40 %ID/g
Biodistribution, Fat (PC3-PIP tumor xenograft; 48 h): 2.36 ± 1.25 %ID/g
Biodistribution, Heart (PC3-PIP tumor xenograft; 48 h): 1.91 ± 0.57 %ID/g
Biodistribution, Intestine (PC3-PIP tumor xenograft; 48 h): 1.54 ± 0.16 %ID/g
Biodistribution, Kidney (PC3-PIP tumor xenograft; 48 h): 52.07 ± 18.32 %ID/g
Biodistribution, Liver (PC3-PIP tumor xenograft; 48 h): 5.74 ± 1.83 %ID/g
Biodistribution, Lung (PC3-PIP tumor xenograft; 48 h): 3.64 ± 1.14 %ID/g
Biodistribution, Muscle (PC3-PIP tumor xenograft; 48 h): 0.80 ± 0.22 %ID/g
Biodistribution, Spleen (PC3-PIP tumor xenograft; 48 h): 3.56 ± 1.14 %ID/g
Biodistribution, Stomach (PC3-PIP tumor xenograft; 48 h): 1.14 ± 0.31 %ID/g
Biodistribution, Tumor (PC3-PIP tumor xenograft; 48 h): 28.84 ± 13.04 %ID/g
cellular uptake (PC3-PIP (PSMA+) cells): 6.02 ± 0.05%
effective dose ([4]; ICRP tissue-weighting factors, OLINDA/EXM, extrapolated from mouse biodistribution): 3.00 × 10^−2 mSv/MBq
estimated radiation-absorbed dose, kidneys ([4]; adult males, extrapolated from normal BALB/c mouse biodistribution): 2.02 mGy/MBq
